Here are results for one compound from US20200352912A1, “ANTIMICROBIAL COMPOSITIONS AND METHODS OF USING THE SAME” (The Board Of Supervisors Of Louisiana State University And …, priority 2018, published 2020).

Assay [1] relates to S. aureus strain NRS383. The assay is described as follows: effect of exogenous thymidine on antibacterial activity. The format is cell-based, Staphylococcus aureus. Conditions: 50 μg/ml, 200 μg/ml thymidine. As to the method:
S. aureus strain NRS383 was grown in cation-adjusted Mueller-Hinton II broth alone (control), with 50 μg/ml of L-161, 982 or with 40 μg/ml of SXT (positive control)±200 μg/ml of thymidine. Cultures were incubated at 37° C. non-shaking and aliquots were removed at various time points and cultured for growth (CFU). Results are expressed as % of control at each time point. Mean values from two independent experiments are shown.
Effect of exogenous thymidine on antibacterial activity of L-161, 982. S. aureus was cultured to mid-log phase in cation-adjusted Mueller-Hinton II broth with shaking at 37° C. Cultures were further diluted to yield a final concentration of 5×10^5 cells/ml. and treated with drugs alone or in combination with 200 μg/ml of thymidine (Sigma). Drugs were L-161, 982 (50 μg/ml) or 40 μg/ml of trimethoprim-sulfamethoxazole (SXT) at a ratio of 1:19 (2 μg/ml of trimethoprim and 38 μg/ml of sulfamethoxazole; Sigma) as a positive control. Cultures were incubated at 37° C. without shaking and aliquots were removed at t(0), 2, 4, 6, and 24 hours. CFUs were enumerated by plating various dilutions on TSA plates and incubating at 37° C. for 24 hours. Results were normalized to negative control cultures containing no drug at each time point.

The target in assay [2] is human EP4 receptors (Homo sapiens, UniProt P35408). As to conditions: cited from earlier work.
human EP4 receptors, sequence (P35408 whole entry): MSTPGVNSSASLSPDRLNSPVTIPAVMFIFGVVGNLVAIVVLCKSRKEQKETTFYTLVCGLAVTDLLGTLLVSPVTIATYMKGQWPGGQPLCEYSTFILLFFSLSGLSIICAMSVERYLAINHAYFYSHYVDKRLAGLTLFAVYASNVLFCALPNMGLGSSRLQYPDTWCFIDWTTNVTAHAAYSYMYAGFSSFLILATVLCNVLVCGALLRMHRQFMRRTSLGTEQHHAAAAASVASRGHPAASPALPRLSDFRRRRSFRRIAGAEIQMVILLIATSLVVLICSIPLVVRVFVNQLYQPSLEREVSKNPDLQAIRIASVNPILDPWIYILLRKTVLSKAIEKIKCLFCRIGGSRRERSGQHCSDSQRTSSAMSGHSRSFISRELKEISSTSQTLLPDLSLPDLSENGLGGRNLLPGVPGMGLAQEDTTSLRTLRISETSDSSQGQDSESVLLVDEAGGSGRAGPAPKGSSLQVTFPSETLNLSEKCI
Assay [3] relates to C. albicans pre-formed biofilm. The assay is described as follows: pre-formed mature biofilm (XTT, CFU). Format: cell-based, Candida albicans. As to conditions: all concentrations tested, 24 h treatment. As to the method:
The effect of L-161, 982 on pre-formed mature biofilms was tested. Mono- and dual-species C. albicans and/or S. aureus biofilms were grown on 96-well plates for 24 h before being treated with the indicated concentration of L-161, 982 for a further 24 h. After treatment, metabolic activity of biofilms was quantified by the XTT assay (A) and then biofilms were disrupted to determine live colony forming units (CFU) (B). The results are cumulative of three independent experiments with duplicate samples. Statistics were performed using One-way ANOVA with the Tukey post-hoc test for the XTT assay. The Mann-Whitney U test was used to analyze CFU data. Significance is indicated as follows: ns—not significant, *P<0.05; *** P<0.001. Error bars represent standard deviation.
Following growth as described above, microbes were washed in phosphate-buffered saline (PBS) by centrifugation, counted on a hemocytometer, and adjusted to 2×10^7 CFU/ml in RPMI buffered with MOPS (165 mM). […]
The XTT reduction assay was used to determine the metabolic activity of biofilms following treatment with L-161, 982 (17). Briefly, wells were washed once in PBS, and plates incubated at 37° C. for 2 h with 200 μl XTT working reagent (0.5 mg/ml XTT and 1 μM Menadione) and the resulting absorbance measured at 490 nm on a microplate spectrophotometer. […]

“Also recorded” adds a separate entry of the source.

For orientation: Ki means the dissociation constant of the complex between target and ligand, obtained from inhibition or displacement. Turning to `CCCCc1nn(-c2ccccc2C(F)(F)F)c(=O)n1Cc1ccc(-c2ccccc2S(=O)(=O)NC(=O)c2sccc2C)cc1` [L-161, 982, N-[[4′-[[3-Butyl-1,5-dihydro-5-oxo-1-[2-(trifluoromethyl)phenyl]-4H-1,2,4-triazol-4-yl]methyl][1,1′-biphenyl]-2-yl]sulfonyl]-3-methyl-2-thiophenecarboxamide], the “effect of exogenous thymidine on growth inhibition” value in assay [1] is “did not reverse; also recorded: no effect”. Also, in assay [2], the Ki was 24 nM. Moreover, the “metabolic activity of pre-formed biofilm” value in assay [3] is given as “no significant inhibitory effects”.
